From patent US20250313544A1, “INHIBITORS OF GLUTATHIONE S-TRANSFERASE ZETA 1 (GSTZ1) AND METHODS OF USE” (H. LEE MOFFITT CANCER CENTER AND RESEARCH INSTITUTE, INC., priority 2022, published 2025)

Assays:
[1] = tested on: drug-refractory NSCLC cells (H1792, H520, HCC366); assay: Cell viability assay (CellTiter-Glo) across drug-refractory NSCLC cell lines; type: cell-based, human; settings: single agent
Protocol: (§1) Cells were seeded in Corning 384-well black walled/clear bottom microplates with a density of 1,000 cells/well and treated with indicated drugs and concentrations following cell attachment for 24 h. After 72 h or 96 h, as indicated, cell viability was evaluated with CellTiter-Glo (Promega, Madison, WI) according to manufacturer's recommendations. An M5 Spectramax plate reader (Molecular devices) was used to read the plates with 500 ms integration. Data was processed and analyzed using Excel and GraphPad Prism 9.0.

H1792 LUAD cells = assay: Chemical proteomics target profiling in live H1792 cells (label-free LC-MS/MS, comparison with control probe 22 and panel-wide cross-comparison); type: binding, human; settings: for prominent target protein predominantly enriched by the probe: compared to control probe and probe panel; for number of probe-enriched target candidates over control probe 22 (promiscuity): log2 ratio vs. control probe >2.32; for other proteins also enriched by the probe: log2 ratio>2.32 and enrichment score>2
Protocol: (§2) Cells were grown in 10 cm dishes to ˜90% confluence at the time of treatment. Cells were carefully washed twice with Dulbecco's phosphate buffered saline (DPBS) and replenished with fresh serum-free RPMI 1640 media containing indicated probes ([…]), competitors, or DMSO. Without competitors, cells were incubated with probes for 30 min at 37° C. and then exposed to 365 nm UV light for 15 min on ice. With competitors, cells were pre-treated with competitors for 30 min and photoactivated for 15 min. Probes were then added to cells for an additional 30 min incubation. For no UV experiments, cells were incubated for 15 min under ambient light. Cells were harvested in cold DPBS and pellets were washed with cold DPBS (2 X). Pellets were either directly processed or kept frozen at −80° C. until use. Cells pellets were lysed for 30 min in cold DPBS (100-300 uL) per culture dish supplemented with 1% NP-40, followed by sonication (5 pulses, 4 s on, 20 s off, output setting=4). Lysates were centrifuged at 20,817×g for 20 min, and supernatant (soluble proteome) was used for further processing. Protein concentrations were determined using Bradford assays.
Protein pellets were transferred to 5 mL microcentrifuge tubes and then resuspended in a freshly-prepared solution of proteomics-grade urea (320 μL, 6 M Urea in DPBS) containing 80 μL of 10% SDS and dissolved by sonication. To each solution, 4 mL DPBS was added (final conc: 0.2%, total volume) and incubated with pre-equilibrated NeutrAvidin agarose resin (100 μL 1:1 slurry, Pierce, Cat. 29201) for 2 hrs at ambient temperature on a rotator. The NeutrAvidin beads were collected by centrifugation (1,400×g, 2 min) and sequentially washed with 0.2% SDS in DPBS (2×2 mL), detergent-free DPBS (2×2 mL), and 50 mM ammonium bicarbonate (AMBIC, 2×2 mL). Beads were resuspended with 200 μL 50 mM AMBIC and incubated with TCEP 50 μL (100 mM in 50 mM AMBIC) for 30 min at 37° C. Iodoacetamide (50 μL of 200 mM in 50 mM AMBIC) was added and incubated for 30 min at ambient temperature. The beads were again washed with 2×1 mL 50 mM AMBIC and resuspended in 100 μL of fresh 50 mM AMBIC and treated with 2 μg of sequencing grade modified trypsin (Promega, #V5111) at 37° C. overnight. These samples were acidified with formic acid (final conc: 5%) and centrifuged (1,000×g, 2 min). The supernatant was collected and desalted through ZIPTIPs, and the desalted peptide mixture were dried in vacuum and reconstituted with HPLC buffer (2% acetonitrile, 0.1% formic acid) for LC-MS/MS analysis. Tryptic peptides of avidin were excluded from MS2 analysis to maximize detection of the protein targets (Table S7). Samples were analyzed using LC-MS/MS after being spiked with 50 fmol/uL PRTC standards (88320, Pierce Retention Time Calibration Mixture, Thermo Fisher, MA). A nanoflow ultra high performance liquid chromatograph and nanoelectrospray orbitrap mass spectrometer (RSLCnano and Q Exactive plus, Thermo) were used for LC-MS/MS. The sample was loaded onto a pre-column (C18 PepMap100, 2 cm length×100 μm ID packed with C18 reversed-phase resin, 5 μm particle size, 100 Å pore size) and washed for 8 minutes with aqueous 2% acetonitrile and 0.1% formic acid. Trapped peptides were eluted onto the analytical column, (C18 PepMap100, 25 cm length×75 μm ID, 2 μm particle size, 100 Å pore size, Thermo). A 120-minute gradient was programmed as: 95% solvent A (aqueous 2% acetonitrile+0.1% formic acid) for 8 minutes, solvent B (aqueous 90% acetonitrile+0.1% formic acid) from 5% to 38.5% in 90 minutes, then solvent B from 50% to 90% B in 7 minutes and held at 90% for 5 minutes, followed by solvent B from 90% to 5% in 1 minute and re-equilibration for 10 minutes using a flow rate of 300 nl/min. Spray voltage was 1900 V. Capillary temperature was 275° C. S lens RF level was set at 40. Top 16 tandem mass spectra were collected in a data-dependent manner. The resolution for MS and MS/MS were set at 70,000 and 17,500 respectively. […]

H1792 cells [2] = assay: In-gel fluorescence analysis of probe-labeled proteins after photocrosslinking in live H1792 cells; type: binding, human; settings: compared to vehicle
Protocol: as §2
To 1 mg of protein, were added a mixture of TBTA (Tris((1-benzyl-4-triazolyl)methyl)amine, 60 μL/sample, 1.7 mM in 1:4 DMSO: t-BuOH stock), CuSO4 (20 μL/sample, 50 mM in H2O), TCEP (tris(2-carboxyethyl) phosphine, 20 μL/sample, 50 mM in DPBS, made fresh) and Biotin-Azide conjugate (10 μL/sample, 10 mM in DMSO stock). Each sample was rotated at room temperature for 2 h. To each resultant a cold 4:1 mixture (600 μL) of methanol (MeOH)/chloroform (CHCl3) was added followed by cold PBS (100 μL) on ice. The resulting cloudy mixture was centrifuged (5,000×g, 10 min, 4° C.) to fractionate the protein interface from the organic and aqueous solvent layers. A MeOH:CHCl3 (1:1, 1 mL, 2×) mixture was used to wash protein discs thoroughly. Protein discs were sonicated in cold 4:1 MeOH:CHCl3 (2 mL) mixture. The remaining precipitate was pelleted by centrifugation (5,000×g, 10 min, 4° C.). […] Gels were subjected to fluorescence imaging or Western Blotting.

[3] = tested on: H520 cells harboring amplified FGFR1; assay: Cell viability assay (CellTiter-Glo) in H520 cells; type: cell-based, human
Protocol: as §1

[4] = tested on: H1792 cells harboring KRAS G12C; assay: Cell viability assay (CellTiter-Glo) in H1792 cells; type: cell-based, human
Protocol: as §1

H1792 cells [5] = assay: Protein tyrosine reactivity profiling (SuTEx probe HHS-482, LC-MS/MS) in H1792 cells; type: cell-based, human; settings: 24 h treatment, log2 ratio ≤−0.585 or ≥0.585, p<0.05 vs. vehicle
Protocol: Cell lysates were prepared and diluted to 2 mg/mL in PBS. Samples were treated with HHS-482 (a SuTEx probe) at 25 μM for 1 h at room temperature. Labeled proteomes were subjected to CuAAC conjugation with Biotin-Azide conjugate (200 μM) by mixing with TCEP (1 mM), TBTA (100 μM), and CuSO4 (1 mM). After 1 h incubation, resulting mixtures were subjected to MeOH: CHCl3 extraction as described above. Protein discs were reconstituted with urea buffer supplemented with 10% SDS. Samples were processed with NeutrAvidin beads, on-bead digestion with trypsin, and ZIPTIP purification as described above. Samples were dried in vacuum and prepared for LC-MS/MS analysis.

C#CCCC1(CCC(=O)Nc2ccc3c(c2)N(CC(C)C)C(=O)C(C)(C)CO3)N=N1 [Probe 7, 3-(3-(but-3-yn-1-yl)-3H-diazirin-3-yl)-N-(5-isobutyl-3,3-dimethyl-4-oxo-2,3,4,5-tetrahydrobenzo[b][1,4]oxazepin-7-yl)propanamide]
cellular activity of probes (cell viability) [1]: displayed activity toward multiple tested cell lines | prominent target protein predominantly enriched by the probe (H1792 LUAD cells): MMGT1 | number of probe-enriched target candidates over control probe 22 (promiscuity) (H1792 LUAD cells): most promiscuous

C#CCCC1(CCC(=O)NCCCNC(=O)c2ccc3c4c(ncnc24)-c2ccccc2C3=O)N=N1 [Probe 21, N-(3-(3-(3-(but-3-yn-1-yl)-3H-diazirin-3-yl)propanamido)propyl)-7-oxo-7H-benzo[e]perimidine-4-carboxamide]
proteome labeling by probe (in-gel fluorescence) (H1792 cells [2]): efficiently labeled a wide range of proteins | cellular activity of probes (cell viability) [1]: displayed activity toward multiple tested cell lines | relative potency among active probes (cell viability) [1]: more potent | cellular activity (cell viability) ([3]; H520 cells, single agent): highly active | number of candidate target proteins identified for the probe (H1792 LUAD cells): 5 | cellular activity (cell viability) ([4]; H1792 cells, single agent): highly active

CCN1CCN(c2ccc(Nc3cc(N(C)C(=O)Nc4c(Cl)c(OC)cc(OC)c4Cl)ncn3)cc2)CC1 [infigratinib, reference compound]
cell response to targeted drug ([3]; H520, FGFR1 overexpression): only partially respond

C#CCCC1(CCC(=O)N2CCC(Oc3ncc(C(F)(F)F)cc3Cl)C2)N=N1 (stereo not drawn) [Probe 5, 3-(3-(but-3-yn-1-yl)-3/-diazirin-3-yl)-1-(3-((3-chloro-5-(trifluoromethyl)pyridin-2-yl)oxy)pyrrolidin-1-yl)propan-1-one]
proteome labeling by probe (in-gel fluorescence) (H1792 cells [2]): efficiently labeled a wide range of proteins | cellular activity of probes (cell viability) [1]: displayed activity toward multiple tested cell lines | prominent target protein predominantly enriched by the probe (H1792 LUAD cells): ME3 | number of probe-enriched target candidates over control probe 22 (promiscuity) (H1792 LUAD cells): most promiscuous | other proteins also enriched by the probe (H1792 LUAD cells): FARSA, PTGR1, ME1, YIF1A, and SGPL1

C#CCCC1(CCC(=O)N2CC(Nc3ncccn3)C2)N=N1 [Probe 18, 3-(3-(but-3-yn-1-yl)-3H-diazirin-3-yl)-1-(3-(pyrimidin-2-ylamino)azetidin-1-yl)propan-1-one]
number of probe-enriched target candidates over control probe 22 (promiscuity) (H1792 LUAD cells): few

C#CCCC1(CCC(=O)N2CCN(Cc3nc(-c4cccs4)cs3)CC2)N=N1 [Probe 6, 3-(3-(but-3-yn-1-yl)-3H-diazirin-3-yl)-1-(4-((4-(thiophen-2-yl)thiazol-2-yl)methyl)piperazin-1-yl)propan-1-one]
prominent target protein predominantly enriched by the probe (H1792 LUAD cells): NDUFB11 | number of probe-enriched target candidates over control probe 22 (promiscuity) (H1792 LUAD cells): most promiscuous | other proteins also enriched by the probe (H1792 LUAD cells): NDUFB10, AK3, and LTA4H

C=CC(=O)N1CCN(c2nc(=O)n(-c3c(C)ccnc3C(C)C)c3nc(-c4c(O)cccc4F)c(F)cc23)[C@@H](C)C1 [sotorasib]
number of proteins with significantly altered Tyr reactivity (H1792 cells [5]): 106 proteins

C=CC(=O)N1CCN(c2ncnc3c(F)c(-c4c(O)cccc4F)c(Cl)cc23)CC1 [ARS1620, reference compound]
cell response to targeted drug ([4]; H1792, KRAS^G12C mutation): poorly responded

C#CCCC1(CCC(=O)N2CCCCC2c2nnc(C(=O)OC)s2)N=N1 (stereo not drawn) [Probe 19, Methyl-5-(1-(3-(3-(but-3-yn-1-yl)-3H-diazirin-3-yl)propanoyl)piperidin-2-yl)-1,3,4-thiadiazole-2-carboxylate]
number of probe-enriched target candidates over control probe 22 (promiscuity) (H1792 LUAD cells): few

C#CCCC1(CCC(=O)NC2CC(Oc3nccn4nc(C)cc34)CC(C)(C)C2)N=N1 (stereo not drawn) [Probe 2, 3-(3-(but-3-yn-1-yl)-3H-diazirin-3-yl)-N-(3,3-dimethyl-5-((2-methylpyrazolo[1,5-a]pyrazin-4-yl)oxy)cyclohexyl)propanamide]
number of probe-enriched target candidates over control probe 22 (promiscuity) (H1792 LUAD cells): most promiscuous

C#CCCC1(CCC(=O)N2CCCC2COc2nc3ccccc3cc2C#N)N=N1 (stereo not drawn) [Probe 20, 2-((1-(3-(3-(but-3-yn-1-yl)-3H-diazirin-3-yl)propanoyl)pyrrolidin-2-yl)methoxy)quinoline-3-carbonitrile]
cellular activity of probes (cell viability) [1]: displayed activity toward multiple tested cell lines
